Results on six compounds are retold here after patent US12377074B2, “Treatment for Wolfram syndrome” (YALE UNIVERSITY, priority 2019, dated 2025).

Data set [1] relates to WFS1-deficient cells. Particulars: cited from earlier work.
The subject of data set [2] is WFS1-deficient cells. Particulars: cited from earlier work. This is another data set of the same source.
Data set [3] relates to calpain activity in INS-1 cells. The conditions noted are these: siRNA against WFS1, 10 μM dantrolene 48 h, then 0.5 μM thapsigargin 6 h, cleaved spectrin relative to GAPDH; cited from earlier work.
The conditions of data set [4]: cited from earlier work.
Another data set deals with INS-1 cells (WT). Description: Cell survival after high glucose, WT INS-1 cells (first set). The format is cell-based, rat. Particulars: for cell survival after treatment with 31 mM glucose for 48 hours (glucose induced cell death): survival normalized to % survival at 1 mM glucose. As to the method: (§1) Survival is normalized to % survival at 1 mM glucose.
as §1

Another data set has as its system WFS1 KO INS-1 cells. The data set can be described thus: Cell survival after high glucose, WFS1 KO INS-1 cells (first set). It counts as cell-based, rat. The conditions noted are these: for cell survival after treatment with 31 mM glucose for 48 hours (glucose induced cell death): 31 mM glucose 48 h, survival normalized to % survival at 1 mM glucose. As to the method:
as §1
The concentration range for protection from cell death by high glucose in WFS1 KO cells is similar.

Data set [5] has as its system WFS1-WT INS1 cells. Description: CellTiter-Glo cell viability assay, WFS1-WT cells. It counts as cell-based, rat. Particulars: 30 mM additional glucose (30G) 48 h, normalized to CTRL, 10 μM in FIG. 19C. As to the method: (§2) CellTiter-Glo™ (CTG) assay (Promega) was used to quantify ATP-dependent bioluminescence as an indicator of cell viability. To assess cell viability, INS1 cells were plated in white 96-well plates (Cat. 07-200-628, Fisher Scientific) at a density of 2×10^3 cells per well and treated the following day with high glucose and/or the indicated drugs for 48 hours before imaging. After treatment was completed, 100 μL of CTG solution was added to each well and 20 minutes later, reading was performed using a Tecan Infinite M1000 Pro microplate reader using the following setting: 5 s orbital shaking (3 mm, 216 rpm), followed by imaging in luminescence mode with 500 ms integration time.
(§3) Because intracellular calcium is an important determinant of cell viability, we measured cell viability in WFS1-WT and WFS1-KO cells. A luminescent, ATP-based assay was used. […] Following hyperglycemia (additional 30 mM glucose for 48 h), we observed an approximately 40% reduction in cell viability in WFS1-KO cells, whereas cell viability in WFS1-WT cells was only 15% lower than under control conditions (FIG. 19C). WFS1-KO cells could be rescued by WFS1 re-expression (SI Appendix, FIG. S5A). These findings are supported by previous reports showing that WFS1 deficiency causes progressive loss of pancreatic β-cells.
A general note: Cellular ATP, detected with luciferase, serves as a proxy for viable cell number.

In data set [6] the test system is WFS1-KO INS1 cells. The data set can be described thus: CellTiter-Glo cell viability assay, WFS1-KO cells. The format is cell-based, rat. The conditions noted are these: for cell viability after hyperglycemia / cell viability at baseline: WFS1-KO cells; for cell viability after hyperglycemia: 30 mM additional glucose (30G) 48 h, normalized to CTRL, 10 μM in FIG. 19C; for cell viability at baseline: no additional glucose. As to the method: CellTiter-Glo™ (CTG) assay (Promega) was used to quantify ATP-dependent bioluminescence as an indicator of cell viability. […] After treatment was completed, 100 μL of CTG solution was added to each well and 20 minutes later, reading was performed using a Tecan Infinite M1000 Pro microplate reader using the following setting: 5 s orbital shaking (3 mm, 216 rpm), followed by imaging in luminescence mode with 500 ms integration time.
Because intracellular calcium is an important determinant of cell viability, we measured cell viability in WFS1-WT and WFS1-KO cells. A luminescent, ATP-based assay was used.

The subject of the next data set is WFS1-OE INS1 cells. Description: CellTiter-Glo cell viability assay, WFS1-OE cells. It counts as cell-based, rat. Particulars: 30 mM additional glucose (30G) 48 h. As to the method: as §2, §3
Data set [7] has as its system WFS1-KO INS1 cells. Description: Resting cytosolic calcium imaging (Fura-2-AM), WFS1-KO cells. Particulars: 10 μM, 24 h treatment. It counts as cell-based, rat. How it is done:
(§4) 2×10^5 cells were plated on each coverslip 2 days before imaging in INS1 medium without G418. HEPES-buffered saline (140 mM NaCl. 1.13 mM MgCl2, 4.7 mM KCL, 2 mM CaCl2, 10 mM D-glucose, and 10 mM HEPES, adjusted to pH 7.4 with NaOH) was used to prepare calcium dye solution and during imaging. In calcium-free HEPES buffer, CaCl2 was replaced with MgCl2 and 0.1 mM EGTA was added to chelate calcium. Fura-2-AM dye powder (Thermo Fisher) was dissolved to 4 μM in calcium-containing HEPES buffer supplemented with 0.03% Pluronic acid (Thermo Fisher). On the day of imaging, each coverslip was incubated in dye solution for 45 min in the dark at room temperature. Each coverslip was then washed 3 times in HEPES-buffered saline solution before calcium imaging began. Calcium measurements were performed with a Hammamatsu Orca R2 camera attached to a Zeiss microscope with a Sutter Lambda DG4 for excitation ratio imaging. Cells were imaged using sequential excitation at 340/380 nm (Fura-2-AM). Images were acquired with emission bandwidth of 501 to 550 nm every second. The raw 340 and 380 signals for each cell were subtracted by corresponding background signal before a 340/380 ratio was calculated. Max amplitude and area under the curve were calculated using PRISM Statistical Software 8. Rate of rise was quantified as the gradient between 25% and 75% maximum amplitude. […]

The test system of data set [8] is WFS1-WT INS1 cells. Description: Resting cytosolic calcium imaging (Fura-2-AM), WFS1-WT cells. It counts as cell-based, rat. Particulars: 10 μM, 24 h treatment. As to the method: as §4
Data set [9] has as its system WFS1-KO INS1 cells. Description: Glucose-stimulated insulin secretion (insulin ELISA), WFS1-KO cells. It counts as cell-based, rat. Particulars: 10 μM drug; for glucose-stimulated insulin secretion: 9 mM glucose stimulation; for difference in glucose-stimulated insulin secretion between WFS1-WT and WFS1-KO cells: after stimulation with 9 mM glucose. As to the method: (§5) For glucose-stimulated insulin secretion studies, INS1 cells were plated on 6-well plates at a density of 6×10^5 cells per well. After 24 hours, cells were incubated with drugs for another 24 hours. Two days after plating, the insulin ELISA assays were performed following a previously published protocol. In detail, preincubating cells in DMEM-base (Sigma) supplemented with 2.5 mM glucose for 1.5 h was followed by a 45 min incubation in DMEM-base with either 2.5 mM glucose for basal secretion or 9 mM glucose for stimulated secretion as indicated. 200 μl of supernatant were collected for analysis of insulin concentration using the Rat High Range ELISA kit (80-INSRTH-E01, ALPCO). Cells were washed with ice cold PBS and lysed in 1 mL 0.1% Triton X-100. Insulin levels were normalized to total protein measured by Micro BCA protein assay kit (23235, Thermo Fisher Scientific).

Data set [10] relates to WFS1-WT INS1 cells. The data set can be described thus: Glucose-stimulated insulin secretion (insulin ELISA), WFS1-WT cells. The format is cell-based, rat. Particulars: 10 μM drug, 24 h. As to the method: as §5
A general note: In an ELISA, binding on a coated surface is turned into a signal by an enzyme label.

Entries after “also recorded” stand apart in the source; their conditions may differ.

Turning to `O=C1CN(/N=C/c2ccc(-c3ccc([N+](=O)[O-])cc3)o2)C(O)=N1` [Dantrolene, dantrolene], the cytosolic calcium levels result in the data set with WFS1-deficient cells [1] was “restored”. Moreover, in the data set with WFS1-deficient cells [2], the apoptosis result is reported as “suppressed”. Also, the calpain activity result in data set [3] is “reduced”. Moreover, the “side effects of prolonged use” value in [4] is reported as “liver toxicity”.

Consider `CN(C)CCCN1c2ccccc2Sc2ccc(Cl)cc21` [chlorpromazine], for which the “cell survival after treatment with 31 mM glucose for 48 hours (glucose induced cell death)” value (from here on “cell survival after treatment”) in the data set with INS-1 cells (WT) (31 mM glucose 48 h) is given as “no effect”; in the data set on INS-1 cells (WT) (31 mM glucose 48 h, listed as chlorprmazine), “no effect on survival”; in the data set with WFS1 KO INS-1 cells, “no effect”; with WFS1 KO INS-1 cells (listed as chlorprmazine), “no effect on survival”.

As for `CCC(NC(=O)OCc1ccccc1)C(=O)C(=O)NCCCN1CCOCC1` (centres unmarked) [calpain inhibitor XI], the “cell viability after hyperglycemia” value in the data set on WFS1-WT INS1 cells [5] is listed as “fully rescued cell viability back to baseline”; in the data set with WFS1-WT INS1 cells [5] (listed as C.I.), “rescued”; with WFS1-KO INS1 cells [6], “fully rescued cell viability back to baseline; also recorded: rescued cell viability back to normal level”; in the data set with WFS1-KO INS1 cells [6] (listed as C.I.) it was “rescued”; in the data set on WFS1-OE INS1 cells it was “fully rescued cell viability back to baseline”. The “high glucose-induced loss of cell viability, dose dependence” value in the data set on WFS1-KO INS1 cells [6] (WFS1-KO cells (clone #1), high glucose, dose series) is “reversed glucose toxicity-induced loss of cell viability in a dose-dependent manner; also recorded: dose-dependently reversed”. Further, in the data set with WFS1-KO INS1 cells [6], the “cell viability at baseline” value is “did not significantly affect cell viability”. Besides, the resting cytosolic calcium entry was “lowered the resting cytosolic calcium in WFS1-KO cells to the level of WFS1-WT cells; also recorded: reversed elevated cytosolic calcium” with WFS1-KO INS1 cells [7] and “without affecting” in the data set on WFS1-WT INS1 cells [8]. Also, in the data set on WFS1-KO INS1 cells [9] (WFS1-KO cells, 24 h), the glucose-stimulated insulin secretion result was “reversed the impairment; also recorded: can be reversed”. In addition, in the data set on WFS1-KO INS1 cells [9], the “difference in glucose-stimulated insulin secretion between WFS1-WT and WFS1-KO cells” value is recorded as “ameliorated the difference”. The insulin secretion result in the data set on WFS1-WT INS1 cells [10] is listed as “did not affect”.

Turning to `CCCC(CCC)C(=O)O` [valproic acid], the “cell survival after treatment” value with INS-1 cells (WT) (31 mM glucose 48 h) is “no effect”; in the data set with INS-1 cells (WT) (31 mM glucose 48 h, listed as valproate), “no effect on survival”; in the data set with WFS1 KO INS-1 cells it was “no effect”; with WFS1 KO INS-1 cells (listed as valproate), “no effect on survival”.

On to `CC(C)C(=O)c1c(C(C)C)nn2ccccc12` [ibudilast], for which, in the data set with INS-1 cells (WT) (1 mM glucose), the “cell survival at low (normal) glucose” value was “no effect; also recorded: does not alter cell survival”. For the same compound, the “concentration giving nearly full recovery/protection of survival” value in the data set on INS-1 cells (WT) (31 mM glucose 48 h) was 1 µM. Further, the EC50 with INS-1 cells (WT) (31 mM glucose 48 h, read-out: half max effect on survival) is approximately 300 nM. Further, the “cell survival after treatment” value in the data set on INS-1 cells (WT) (31 mM glucose 48 h) is “rescued viability; also recorded: did protect cell survival”; with WFS1 KO INS-1 cells, “rescued viability”. The “concentration range for protection from cell death by high glucose, compared with WT” value with WFS1 KO INS-1 cells (high glucose) is given as “similar”. Besides, the “cell viability after hyperglycemia” value is given as “fully rescued cell viability back to baseline” in the data set on WFS1-WT INS1 cells [5]; “rescued” with WFS1-WT INS1 cells [5] (listed as IBU); “fully rescued cell viability back to baseline; also recorded: rescued cell viability back to normal level” in the data set on WFS1-KO INS1 cells [6]; “rescued” with WFS1-KO INS1 cells [6] (listed as IBU); “fully rescued cell viability back to baseline” with WFS1-OE INS1 cells. Further, in the data set on WFS1-KO INS1 cells [6], the “cell viability at baseline” value is listed as “did not significantly affect cell viability; also recorded: slightly raised cell viability”. The resting cytosolic calcium result in the data set on WFS1-KO INS1 cells [7] is on record as “lowered the resting cytosolic calcium in WFS1-KO cells to the level of WFS1-WT cells; also recorded: reversed elevated cytosolic calcium”; in the data set with WFS1-WT INS1 cells [8], “without affecting”. The “insulin secretion at baseline” value with WFS1-KO INS1 cells [9] (WFS1-KO cells, 2.5 mM glucose, 24 h) is reported as “enhanced insulin secretion at baseline”; in the data set on WFS1-WT INS1 cells [10] (2.5 mM glucose), “enhanced insulin secretion at baseline”. In the data set with WFS1-KO INS1 cells [9] (WFS1-KO cells, 24 h), the glucose-stimulated insulin secretion entry is reported as “reversed the impairment; also recorded: can be reversed”. Also, the “difference in glucose-stimulated insulin secretion between WFS1-WT and WFS1-KO cells” value in the data set on WFS1-KO INS1 cells [9] is on record as “ameliorated the difference”.

Turning to `[Li]` [lithium], the “cell survival after treatment” value in the data set with INS-1 cells (WT) (31 mM glucose 48 h) and with WFS1 KO INS-1 cells was “no effect” each time.
